Data: the CheMixHub viscosity set
Where “and” joins values, the source holds several entries; their conditions need not be identical. Identical values can stand only once. ± gives the uncertainty stated by the source.

Experiment: xn = mol fraction of the nth substance listed

`CN(C)CCO` + O showed a viscosity (293.15 K, 101 kPa, x1 = 0.08) of 4.245 ± 0.025 mPa·s, a viscosity (293.15 K, 101.3 kPa, x1 = 0.1001) of 6.55 ± 0.06 mPa·s and a viscosity (293.15 K, 101.3 kPa, x1 = 0.1999) of 10.56 ± 0.09 mPa·s. It also gave a viscosity (293.15 K, 101.3 kPa, x1 = 0.3) of 13.17 ± 0.11 mPa·s, a viscosity (293.15 K, 101.3 kPa, x1 = 0.4) of 14.4 ± 0.12 mPa·s and a viscosity (293.15 K, 101.3 kPa, x1 = 0.5) of 14.13 ± 0.12 mPa·s. For the same compound, the viscosity (293.15 K, 101.3 kPa, x1 = 0.6001) was 12.81 ± 0.11 mPa·s, the viscosity (293.15 K, 101.3 kPa, x1 = 0.6998) was 10.51 ± 0.09 mPa·s and the viscosity (293.15 K, 101.3 kPa, x1 = 0.8) was 7.76 ± 0.07 mPa·s. It also gave a viscosity (293.15 K, 101.3 kPa, x1 = 0.9001) of 5.2 ± 0.05 mPa·s, a viscosity (298.15 K, 101 kPa, x1 = 0.08) of 3.487 ± 0.023 mPa·s and a viscosity (303.15 K, 101 kPa, x1 = 0.03444) of 1.45 ± 0.06 mPa·s. The viscosity (303.15 K, 101 kPa, x1 = 0.05) was 1.921 ± 0.018 mPa·s, the viscosity (303.15 K, 101 kPa, x1 = 0.07971) was 2.95 ± 0.12 mPa·s and 2.92 ± 0.06 mPa·s and the viscosity (303.15 K, 101 kPa, x1 = 0.08) was 2.898 ± 0.021 mPa·s. The viscosity (303.15 K, 101 kPa, x1 = 0.1003) was 3.662 ± 0.027 mPa·s, the viscosity (303.15 K, 101 kPa, x1 = 0.1187) was 4.64 ± 0.1 mPa·s and the viscosity (303.15 K, 101 kPa, x1 = 0.1419) was 5.19 ± 0.21 mPa·s. For the same compound, the viscosity (303.15 K, 101 kPa, x1 = 0.1993) was 7.496 ± 0.047 mPa·s, the viscosity (303.15 K, 101 kPa, x1 = 0.2947) was 9.838 ± 0.062 mPa·s and the viscosity (303.15 K, 101 kPa, x1 = 0.3489) was 10.24 ± 0.066 mPa·s. The viscosity (303.15 K, 101 kPa, x1 = 0.4004) was 10.1 ± 0.066 mPa·s, the viscosity (303.15 K, 101 kPa, x1 = 0.453) was 9.546 ± 0.063 mPa·s and the viscosity (303.15 K, 101 kPa, x1 = 0.504) was 8.735 ± 0.058 mPa·s. The viscosity (303.15 K, 101 kPa, x1 = 0.6047) was 7.076 ± 0.048 mPa·s, the viscosity (303.15 K, 101 kPa, x1 = 0.7044) was 5.567 ± 0.038 mPa·s and the viscosity (303.15 K, 101 kPa, x1 = 0.8062) was 4.37 ± 0.03 mPa·s. For the same compound, the viscosity (303.15 K, 101 kPa, x1 = 0.9046) was 3.485 ± 0.025 mPa·s, the viscosity (303.15 K, 101.3 kPa, x1 = 0.1001) was 4 ± 0.04 mPa·s and the viscosity (303.15 K, 101.3 kPa, x1 = 0.1999) was 6.7 ± 0.06 mPa·s. It also gave a viscosity (303.15 K, 101.3 kPa, x1 = 0.3) of 8.53 ± 0.07 mPa·s, a viscosity (303.15 K, 101.3 kPa, x1 = 0.4) of 9.37 ± 0.08 mPa·s and a viscosity (303.15 K, 101.3 kPa, x1 = 0.5) of 9.3 ± 0.08 mPa·s. The viscosity (303.15 K, 101.3 kPa, x1 = 0.6001) was 8.61 ± 0.08 mPa·s, the viscosity (303.15 K, 101.3 kPa, x1 = 0.6998) was 7.1 ± 0.06 mPa·s and the viscosity (303.15 K, 101.3 kPa, x1 = 0.8) was 5.27 ± 0.05 mPa·s. It also gave a viscosity (303.15 K, 101.3 kPa, x1 = 0.9001) of 3.53 ± 0.04 mPa·s, a viscosity (308.15 K, 101 kPa, x1 = 0.05) of 1.657 ± 0.015 mPa·s and a viscosity (308.15 K, 101 kPa, x1 = 0.08) of 2.44 ± 0.02 mPa·s. The viscosity (308.15 K, 101 kPa, x1 = 0.1003) was 3.042 ± 0.023 mPa·s, the viscosity (308.15 K, 101 kPa, x1 = 0.1993) was 6.012 ± 0.044 mPa·s and the viscosity (308.15 K, 101 kPa, x1 = 0.2947) was 7.806 ± 0.056 mPa·s. The viscosity (308.15 K, 101 kPa, x1 = 0.3489) was 8.126 ± 0.058 mPa·s, the viscosity (308.15 K, 101 kPa, x1 = 0.4004) was 8.019 ± 0.057 mPa·s and the viscosity (308.15 K, 101 kPa, x1 = 0.453) was 7.626 ± 0.054 mPa·s. The viscosity (308.15 K, 101 kPa, x1 = 0.504) was 7.048 ± 0.05 mPa·s, the viscosity (308.15 K, 101 kPa, x1 = 0.6047) was 5.815 ± 0.041 mPa·s and the viscosity (308.15 K, 101 kPa, x1 = 0.7044) was 4.675 ± 0.033 mPa·s. It also gave a viscosity (308.15 K, 101 kPa, x1 = 0.8062) of 3.722 ± 0.026 mPa·s, a viscosity (308.15 K, 101 kPa, x1 = 0.9046) of 3.015 ± 0.022 mPa·s and a viscosity (313.15 K, 101 kPa, x1 = 0.03444) of 1.14 ± 0.05 mPa·s. For the same compound, the viscosity (313.15 K, 101 kPa, x1 = 0.07971) was 2.01 ± 0.04 mPa·s, the viscosity (313.15 K, 101 kPa, x1 = 0.1003) was 2.555 ± 0.02 mPa·s and the viscosity (313.15 K, 101 kPa, x1 = 0.1187) was 3.19 ± 0.07 mPa·s. The viscosity (313.15 K, 101 kPa, x1 = 0.1993) was 4.87 ± 0.035 mPa·s, the viscosity (313.15 K, 101 kPa, x1 = 0.2947) was 6.256 ± 0.045 mPa·s and the viscosity (313.15 K, 101 kPa, x1 = 0.3489) was 6.525 ± 0.046 mPa·s. It also gave a viscosity (313.15 K, 101 kPa, x1 = 0.4004) of 6.443 ± 0.046 mPa·s, a viscosity (313.15 K, 101 kPa, x1 = 0.453) of 6.189 ± 0.044 mPa·s and a viscosity (313.15 K, 101 kPa, x1 = 0.504) of 5.741 ± 0.041 mPa·s. The viscosity (313.15 K, 101 kPa, x1 = 0.6047) was 4.809 ± 0.034 mPa·s, the viscosity (313.15 K, 101 kPa, x1 = 0.7044) was 3.934 ± 0.028 mPa·s and the viscosity (313.15 K, 101 kPa, x1 = 0.8062) was 3.184 ± 0.023 mPa·s. For the same compound, the viscosity (313.15 K, 101 kPa, x1 = 0.9046) was 2.615 ± 0.019 mPa·s, the viscosity (313.15 K, 101.3 kPa, x1 = 0.1001) was 2.56 ± 0.03 mPa·s and the viscosity (313.15 K, 101.3 kPa, x1 = 0.1999) was 4.2 ± 0.04 mPa·s. The viscosity (313.15 K, 101.3 kPa, x1 = 0.3) was 5.23 ± 0.05 mPa·s, the viscosity (313.15 K, 101.3 kPa, x1 = 0.4) was 5.7 ± 0.05 mPa·s and the viscosity (313.15 K, 101.3 kPa, x1 = 0.5) was 5.61 ± 0.05 mPa·s. For the same compound, the viscosity (313.15 K, 101.3 kPa, x1 = 0.6001) was 5.08 ± 0.05 mPa·s, the viscosity (313.15 K, 101.3 kPa, x1 = 0.6998) was 4.26 ± 0.04 mPa·s and the viscosity (313.15 K, 101.3 kPa, x1 = 0.9001) was 2.4 ± 0.03 mPa·s. It also gave a viscosity (318.15 K, 101 kPa, x1 = 0.05) of 1.271 ± 0.013 mPa·s, a viscosity (318.15 K, 101 kPa, x1 = 0.08) of 1.791 ± 0.019 mPa·s and a viscosity (318.15 K, 101 kPa, x1 = 0.1003) of 2.183 ± 0.018 mPa·s. For the same compound, the viscosity (318.15 K, 101 kPa, x1 = 0.1993) was 4.018 ± 0.029 mPa·s, the viscosity (318.15 K, 101 kPa, x1 = 0.2947) was 5.104 ± 0.037 mPa·s and the viscosity (318.15 K, 101 kPa, x1 = 0.3489) was 5.309 ± 0.038 mPa·s. For the same compound, the viscosity (318.15 K, 101 kPa, x1 = 0.4004) was 5.268 ± 0.038 mPa·s, the viscosity (318.15 K, 101 kPa, x1 = 0.453) was 5.067 ± 0.036 mPa·s and the viscosity (318.15 K, 101 kPa, x1 = 0.504) was 4.741 ± 0.034 mPa·s. For the same compound, the viscosity (318.15 K, 101 kPa, x1 = 0.6047) was 4.041 ± 0.029 mPa·s, the viscosity (318.15 K, 101 kPa, x1 = 0.7044) was 3.341 ± 0.024 mPa·s and the viscosity (318.15 K, 101 kPa, x1 = 0.8062) was 2.756 ± 0.02 mPa·s. The viscosity (318.15 K, 101 kPa, x1 = 0.9046) was 2.293 ± 0.018 mPa·s, the viscosity (323.15 K, 101 kPa, x1 = 0.03444) was 0.91 ± 0.04 mPa·s and the viscosity (323.15 K, 101 kPa, x1 = 0.07971) was 1.56 ± 0.06 mPa·s and 1.51 ± 0.03 mPa·s. It also gave a viscosity (323.15 K, 101 kPa, x1 = 0.08) of 1.557 ± 0.018 mPa·s, a viscosity (323.15 K, 101 kPa, x1 = 0.1187) of 2.31 ± 0.05 mPa·s and a viscosity (323.15 K, 101 kPa, x1 = 0.1419) of 2.51 ± 0.1 mPa·s. For the same compound, the viscosity (323.15 K, 101.3 kPa, x1 = 0.1999) was 3.19 ± 0.03 mPa·s, the viscosity (323.15 K, 101.3 kPa, x1 = 0.3) was 3.69 ± 0.03 mPa·s and the viscosity (323.15 K, 101.3 kPa, x1 = 0.4) was 3.86 ± 0.04 mPa·s. The viscosity (323.15 K, 101.3 kPa, x1 = 0.5) was 3.65 ± 0.04 mPa·s, the viscosity (323.15 K, 101.3 kPa, x1 = 0.6001) was 3.16 ± 0.03 mPa·s and the viscosity (323.15 K, 101.3 kPa, x1 = 0.6998) was 2.64 ± 0.03 mPa·s. For the same compound, the viscosity (323.15 K, 101.3 kPa, x1 = 0.8) was 2.12 ± 0.03 mPa·s and the viscosity (323.15 K, 101.3 kPa, x1 = 0.9001) was 1.84 ± 0.03 mPa·s.
